{"source": "ChEMBL document CHEMBL4616656", "about": "“Diisonitrile-Mediated Reactive Oxygen Species Accumulation Leads to Bacterial Growth Inhibition” (J Nat Prod, 2020)", "key": {"[1]": {"test_system": "Bacillus subtilis", "test": "Antibacterial activity against Bacillus subtilis 168 at 10 uM after 12 hrs relative to control", "assay_type": "functional"}, "[2]": {"test_system": "Bacillus subtilis subsp. subtilis str. 168", "test": "Copper chelating activity in Bacillus subtilis 168 assessed as reduction in cytochrome c oxidase activity by measuring increase in ROS level at 10 uM measured over 40 mins by H2DCFDA staining based fluorescence method relative to control"}, "[3]": {"biological_target": "Mushroom tyrosinase (Agaricus bisporus, UniProt O42713+Q00024+C7FF04+C7FF05)", "test": "Inhibition of mushroom tyrosinase using L-DOPA as substrate preincubated for 10 mins followed by substrate addition and measured after 15 mins by spectrophotometric method"}, "[4]": {"test_system": "Acinetobacter baumannii ATCC 19606 = CIP 70.34 = JCM 6841", "test": "Copper chelating activity in Acinetobacter baumannii ATCC 19606 assessed as increase in ROS level at 10 uM measured over 40 mins by H2DCFDA staining based fluorescence method"}, "[5]": {"test_system": "Escherichia coli", "test": "Antibacterial activity against Escherichia coli BL21 at 10 uM after 12 hrs relative to control", "assay_type": "functional"}, "[6]": {"test_system": "Bacillus subtilis", "test": "Antibacterial activity against Bacillus subtilis 168 assessed as inhibition rate at 100 uM after 12 hrs relative to control", "assay_type": "functional", "conditions": "subsp. subtilis str. 168, 12 h"}, "[7]": {"test_system": "Bacillus subtilis subsp. subtilis str. 168", "test": "Copper chelating activity in Bacillus subtilis 168 assessed as reduction in cellular copper content at 100 uM incubated for 1 hr by ICP-MS analysis relative to control", "design": "scale not given: the % may be the effect or the level left"}, "[8]": {"test_system": "Acinetobacter baumannii", "test": "Antibacterial activity against Acinetobacter baumannii ATCC 19606 at 10 uM after 12 hrs relative to control", "assay_type": "functional, ATCC 19606 = CIP 70.34 = JCM 6841"}, "[9]": {"test_system": "Bacillus subtilis", "test": "Antibacterial activity against Bacillus subtilis 168 in presence of CuCl2 by paper disk assay", "assay_type": "functional, organism-based", "conditions": "subsp. subtilis str. 168"}, "[10]": {"test_system": "Bacillus subtilis", "test": "Antibacterial activity against Bacillus subtilis 168 in presence of Fe3+ by paper disk assay", "assay_type": "functional, organism-based", "conditions": "subsp. subtilis str. 168"}, "[11]": {"test_system": "Pseudomonas aeruginosa", "test": "Antibacterial activity against Pseudomonas aeruginosa ATCC 27853 at 10 uM after 12 hrs relative to control", "assay_type": "functional"}, "[12]": {"test_system": "Enterococcus faecalis", "test": "Antibacterial activity against Enterococcus faecalis ATCC 29212 at 10 uM after 12 hrs relative to control", "assay_type": "functional"}, "[13]": {"test_system": "Bacillus subtilis", "test": "Antibacterial activity against Bacillus subtilis 168 in presence of Fe2+ by paper disk assay", "assay_type": "functional, organism-based", "conditions": "subsp. subtilis str. 168"}, "[14]": {"test_system": "Klebsiella pneumoniae", "test": "Antibacterial activity against Klebsiella pneumoniae CMCC 46117 at 10 uM after 12 hrs relative to control", "assay_type": "functional"}, "[15]": {"test_system": "Bacillus subtilis subsp. subtilis str. 168", "test": "Copper chelating activity in Bacillus subtilis 168 assessed as reduction in cytochrome c oxidase activity by measuring decrease in intracellular ATP level at 10 uM incubated for 15 to 90 mins by bioluminescence method relative to control", "assay_type": "cell-based", "design": "scale not given: the % may be the effect or the level left"}, "[16]": {"test_system": "Staphylococcus aureus", "test": "Antibacterial activity against Staphylococcus aureus ATCC 43300 at 10 uM after 12 hrs relative to control", "assay_type": "functional"}, "[17]": {"test_system": "Bacillus subtilis", "test": "microbe, parasite or virus in culture", "conditions": "subsp. subtilis str. 168, 12 h", "description": "Antibacterial activity against Bacillus subtilis 168 after 12 hrs"}, "[18]": {"conditions": "Bacillus subtilis subsp. subtilis str. 168"}}, "note": "The source made the active and inactive calls. The rule behind the calls is not given here.", "data": [{"smiles": "C[C@H](CC(=O)NC[C@@H]1CC[C@H](NC(=O)C[C@@H](C)NC=O)C(O)O1)NC=O", "note": "(stereo partly specified)", "values": [{"measurement": "Activity", "setting": "[1]; [18]", "result": "inactive"}, {"measurement": "Activity", "setting": "[2]", "result": "inactive"}]}, {"smiles": "C[C@@H](C#N)CC(=O)NCCCC[C@@H](CO)NC(=O)C[C@@H](C)C#N", "values": [{"measurement": "IC50", "setting": "[3]", "result": 89.6, "unit": "µM"}, {"measurement": "Activity", "setting": "[1]; [18]", "result": "Active"}, {"measurement": "Activity", "setting": "[2]", "result": "Active"}]}, {"smiles": "CC(C)=CCC(=O)NC[C@@H]1CC[C@H](NC(=O)C[C@@H](C)C#N)C(O)O1", "note": "(stereo partly specified)", "values": [{"measurement": "Activity", "setting": "[1]; [18]", "result": "inactive"}, {"measurement": "Activity", "setting": "[2]", "result": "inactive"}]}, {"smiles": "C[C@H](CC(=O)N[C@H]1CC[C@@H](CNC(=O)C[C@@H](C)C#N)OC1O)NC=O", "note": "(stereo partly specified)", "values": [{"measurement": "Activity", "setting": "[1]; [18]", "result": "inactive"}, {"measurement": "Activity", "setting": "[2]", "result": "inactive"}]}, {"smiles": "C[C@H](CC(=O)N[C@H](CO)CCCCNC(=O)C[C@@H](C)C#N)NC=O", "values": [{"measurement": "Activity", "setting": "[1]; [18]", "result": "inactive"}, {"measurement": "Activity", "setting": "[2]", "result": "inactive"}]}, {"smiles": "CC(=O)OC[C@H](CCCCNC(=O)C[C@@H](C)C#N)NC(=O)C[C@@H](C)C#N", "values": [{"measurement": "IC50", "setting": "[3]", "result": 89.6, "unit": "µM"}, {"measurement": "Activity", "setting": "[1]; [18]", "result": "Active"}, {"measurement": "Activity", "setting": "[2]", "result": "Active"}]}, {"smiles": "CC(C)CC(=O)NC[C@@H]1CC[C@H](NC(=O)CC(C)C)C(O)O1", "note": "(stereo partly specified)", "values": [{"measurement": "Activity", "setting": "[1]; [18]", "result": "inactive"}, {"measurement": "Activity", "setting": "[2]", "result": "inactive"}]}, {"smiles": "CC(C)CCC(=O)NC[C@@H]1CC[C@H](NC(=O)C[C@@H](C)C#N)C(O)O1", "note": "(stereo partly specified)", "values": [{"measurement": "Activity", "setting": "[1]; [18]", "result": "inactive"}, {"measurement": "Activity", "setting": "[2]", "result": "inactive"}]}, {"smiles": "CC(C#N)CC(=O)NC[C@@H]1CC[C@H](NC(=O)C[C@@H](C)C#N)C(O)O1", "note": "(stereo partly specified)", "values": [{"measurement": "Activity", "setting": "[4]", "result": "Active"}, {"measurement": "IC50", "setting": "[3]", "result": 89.6, "unit": "µM"}, {"measurement": "Activity", "setting": "[5]", "result": "20 - 30%"}, {"measurement": "inhibition at 100 µM", "setting": "[6]", "result": "56 to 60", "unit": "%"}, {"measurement": "Activity", "setting": "[7]", "result": 24, "unit": "%"}, {"measurement": "Activity", "setting": "[1]", "result": 50, "unit": "%"}, {"measurement": "Activity", "setting": "[8]", "result": 57, "unit": "%"}, {"measurement": "Activity", "setting": "[9]", "result": "inactive"}, {"measurement": "Activity", "setting": "[10]", "result": "Active"}, {"measurement": "Activity", "setting": "[11]", "result": "20 - 30%"}, {"measurement": "Activity", "setting": "[12]", "result": "20 - 30%"}, {"measurement": "Activity", "setting": "[13]", "result": "Active"}, {"measurement": "Activity", "setting": "[14]", "result": "20 - 30%"}, {"measurement": "fold change (FC)", "setting": "[2]", "result": 9}, {"measurement": "Activity", "setting": "[15]", "result": 20, "unit": "%"}, {"measurement": "Activity", "setting": "[16]", "result": "20 - 30%"}]}, {"smiles": "CC(=O)OC[C@H](CCCCNC(=O)C[C@@H](C)NC=O)NC(=O)C[C@@H](C)NC=O", "values": [{"measurement": "Activity", "setting": "[1]; [18]", "result": "inactive"}, {"measurement": "Activity", "setting": "[2]", "result": "inactive"}]}, {"smiles": "C[C@H](CC(=O)NCCCC[C@@H](CO)NC(=O)C[C@@H](C)NC=O)NC=O", "values": [{"measurement": "Activity", "setting": "[1]; [18]", "result": "inactive"}, {"measurement": "Activity", "setting": "[2]", "result": "inactive"}]}, {"smiles": "C[C@H](CC(=O)NCCCC[C@@H](CO)NC(=O)C[C@@H](C)C#N)NC=O", "values": [{"measurement": "Activity", "setting": "[1]; [18]", "result": "inactive"}, {"measurement": "Activity", "setting": "[2]", "result": "inactive"}]}, {"smiles": "COc1cc(Cc2cnc(N)nc2N)cc(OC)c1OC", "note": "[TRIMETHOPRIM]", "values": [{"measurement": "IC50", "setting": "[17]", "result": 0.3, "unit": "µM"}]}]}
